Measured values as given in EP4755886A1 (Chengdu Chipscreen Pharmaceutical Ltd., priority 2023, dated 2025).

Assays:
[1] = system: human large cell lung cancer cell line LU99; assay: Efficacy in LU99 xenograft mouse model; format: in vivo, Balb/c nude mice; settings: PO, qd, 28 days
Description: The human large cell lung cancer cell line LU99 was purchased from Nanjing Cobioer Biosciences Co., Ltd. (CBP61512) and cultured in RPMI-1640 medium (Gibco) containing 10% fetal bovine serum (Gibco); the test substances were prepared into suspensions at concentrations of 0.3 mg/mL, 1 mg/mL, and 5 mg/mL using a 0.5% aqueous MC solution containing 0.2% Tween 80. Reference Example 6 (MRTX1719) was prepared into a 5 mg/mL clear solution using 40% PEG400 normal saline containing 2% DMSO.
LU99 cells in the logarithmic growth phase were digested, collected, and counted, and the cell density was adjusted to 2 × 10^7 cells/mL using a 1:1 serum-free medium and matrigel (Corning). 18-20 g of Balb/c nude mice (Beijing Huafukang Biotechnology Co., Ltd.) were inoculated subcutaneously with 100 µL of cell suspension per mouse. On day 12 after inoculation, animals with a mean tumor volume of 116 mm^3 were randomly grouped, with 7 animals in each group. The test substances were intragastrically administered at 3 mg/kg, 10 mg/kg, and 50 mg/kg once daily, and MRTX1719 was intragastrically administered at 50 mg/kg once daily. A vehicle (2% DMSO + 40% PEG400 + 58% normal saline) was intragastrically administered to the blank group at a dose of 10 mL/kg once daily. Administration was performed for 28 days in total.
After the animals were inoculated with LU99 cells, the tumor volume was measured 2-3 times a week, and the tumor volume was calculated based on length × width^2 × 0.5. On the day when the last administration was completed, except for the mice with tumor regression, which were subjected to discontinuation observation, the remaining mice were euthanized.
In the formula, VTt represents the tumor volume of the treatment group at each measurement, and VT0 represents the tumor volume measured when the treatment group is grouped; VCt represents the tumor volume of the model control group at each measurement, and VC0 represents the tumor volume measured when the model control group is grouped.
Data were analyzed using GraphPad Prism 9.0 software and expressed as Mean ± SEM (standard error). Pairwise comparisons between each administration group and the model control group were performed using one-way analysis of variance (ANOVA). Variance homogeneity was determined using the Brown-Forsythe method, and variance heterogeneity was determined using the Dunnett's T3 method. Table 8. Efficacy evaluation in LU99 xenograft mouse model

[2] = system: wild-type HCT-116 cells; assay: Cell proliferation (MTS), wild-type HCT-116; format: cell-based; settings: Homo sapiens, 240 h; wild-type HCT-116, 10 days with compound, MTS reading; read-out: IC50 HCT116 WT
Procedure, shortened: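 Wild-type HCT-116 cells were seeded at 100 cells/well in McCoy's 5A/10% FBS. From day 1 they were treated with compound in 3-fold dilutions (initial 20 µM, 8 points) for 10 days at 37° C. Proliferation was read by MTS on day 11, and IC50 was obtained from a four-parameter logistic fit.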

[3] = PK experiment in mice; settings: mouse, plasma, po, 10 mg/kg
[4] = system: MTAP^-/- HCT-116 cells; assay: Cell proliferation (MTS), MTAP-/- HCT-116; format: cell-based, human; settings: for IC50: Homo sapiens, 240 h, MTAP-/- HCT-116, 10 days with compound, MTS reading, read-out: IC50 HCT116 MTAP-/-; for Selectivity: HCT116 WT IC50 relative to HCT116 MTAP-/- IC50
Procedure, shortened: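 MTAP-/- (CRISPR/Cas9 biallelic knockout) or wild-type HCT-116 cells seeded at 100 cells/well, treated next day with 8-point 3-fold dilutions (top 20 µM) for 10 days at 37 °C, 5% CO2. Viability read by MTS; IC50 from four-parameter logistic fit of inhibition rate vs log concentration.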

[5] = PK experiment in rats; format: in vivo; settings: rat; SD male rats, PO 10 mg/kg, vehicle 0.5% MC/0.2% Tween 80, plasma
Description: The samples were analyzed by LC-MS/MS. […] Table 6. Pharmacokinetic parameters for rats

IC50 [2] | IC50 [4] | AUC(0-t) ([3]; female, BALB/c) | Cmax ([3]; female, BALB/c) | SMILES | TGI ([1]; 3 mg/kg) | Tumor volume ([1]; 3 mg/kg) | TGI ([1]; 10 mg/kg) | Tumor volume ([1]; 10 mg/kg) | TGI ([1]; 50 mg/kg) | Tumor volume ([1]; 50 mg/kg) | AUC(0-t) [3] | Cmax [3] | AUC(0-t) [5] | Cmax [5] | Selectivity [4]
646 nM | 3.8 nM | 32300 ± 3340 ng·h/mL | 3420 ± 913 ng/mL | CN(C(=O)c1cc2c3c(c(N)nc2cc1Cl)COC3)[C@@H]1COc2cc(C#Cc3cnn(C4CC4)c3)ccc21 [Compound 43A, (S)-4-amino-7-chloro-N-(6-((1-cyclopropyl-1H-pyrazol-4-yl)ethynyl)-2,3-dihydrobenzofuran-3-yl)-N-methyl-1,3-dihydrofuro[3,4-c]quinoline-8-carboxamide] | 83.27% | 415.58 mm^3 | 94.77% | 210.31 mm^3 | 104.92% | 28.13 mm^3 | – | – | 9650 ± 1170 ng·h/mL | 1220 ± 417 ng/mL | 170
431 nM | 2.4 nM | – | – | Cc1nn(C)cc1C#Cc1ccc2c(c1)OC[C@H]2N(C)C(=O)c1cc2c3c(c(N)nc2cc1Cl)COC3 [Compound 50A, (S)-4-amino-7-chloro-N-(6-((1,3-dimethyl-1H-pyrazol-4-yl)ethynyl)-2,3-dihydrobenzofuran-3-yl)-N-methyl-1,3-dihydrofuro[3,4-c]quinoline-8-carboxamide] | – | – | – | – | – | – | – | – | – | – | 180

SMILES | IC50 [2] | IC50 [4] | AUC(0-t) ([3]; female, BALB/c) | Cmax ([3]; female, BALB/c) | TGI ([1]; 3 mg/kg) | Tumor volume ([1]; 3 mg/kg) | TGI ([1]; 10 mg/kg) | Tumor volume ([1]; 10 mg/kg) | TGI ([1]; 50 mg/kg) | Tumor volume ([1]; 50 mg/kg) | AUC(0-t) [3] | Cmax [3] | AUC(0-t) [5] | Cmax [5] | Selectivity [4]
CN(C(=O)c1cc2c(cc1F)nc(N)c1cnn(C)c12)[C@@H]1COc2cc(C#Cc3cnn(C)c3)ccc21 [Compound 5A, (S)-4-amino-7-fluoro-N,1-dimethyl-N-(6-((1-methyl-1H-pyrazol-4-yl)ethynyl)-2,3-dihydrobenzofuran-3-yl)-1H-pyrazolo[4,3-c]quinoline-8-carboxamide] | 170 nM | 1.7 nM | – | – | 81.96% | 438.73 mm^3 | 95.20% | 202.05 mm^3 | 103.12% | 60.72 mm^3 | 15700 ± 1600 ng·h/mL | 2220 ± 230 ng/mL | 15600 ± 4640 ng·h/mL | 2180 ± 777 ng/mL | –
